Data taken from ChEMBL document CHEMBL1201862, “PubChem BioAssay data set” (2004).
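Protocol summary: plate cells (96-well), add compound at 5 concentrations, incubate 48 h, interpolate endpoints linearly. Abbreviation: GI50, concentration required for 50% inhibition of growth.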 Active and inactive are the calls of the source. Rule as the data show it: active = GI50 up to about 1.1 µM and inactive = higher.

Assays:
Assay in all cases: DTP human tumour cell line panel, 48 h
[1] = test system: NCI-H226
[2] = test system: ACHN
[3] = test system: SR
[4] = test system: HL-60
[5] = test system: BT-549
[6] = test system: TK-10
[7] = test system: T47D
[8] = test system: A498
[9] = test system: MDA-MB-435
[10] = test system: SNB-75
[11] = test system: NCI-H23
[12] = test system: SNB-19
[13] = test system: SF-268
[14] = test system: HOP-92
[15] = test system: OVCAR-8
[16] = test system: MDA-MB-231
[17] = test system: UACC-257
[18] = test system: K562
[19] = test system: SF-539
[20] = test system: RXF 393

Row | Compound | GI50 [1] | GI50 [2] | GI50 [3] | GI50 [4] | GI50 [5] | GI50 [6] | GI50 [7] | GI50 [8] | GI50 [9] | GI50 [10] | GI50 [11] | GI50 [12] | GI50 [13] | GI50 [14] | GI50 [15] | GI50 [16] | GI50 [17] | GI50 [18] | GI50 [19] | GI50 [20]
1 | c1ccc(C2=NC3OC2c2ccccc23)cc1 (centres undefined) | > 10 µM (inactive) | > 10 µM (inactive) | > 10 µM (inactive) | > 10 µM (inactive) | > 10 µM (inactive) | > 10 µM (inactive) | > 10 µM (inactive) | > 10 µM (inactive) | > 10 µM (inactive) | > 10 µM (inactive) | > 10 µM (inactive) | > 10 µM (inactive) | > 10 µM (inactive) | > 10 µM (inactive) | > 10 µM (inactive) | > 10 µM (inactive) | > 10 µM (inactive) | > 10 µM (inactive) | > 10 µM (inactive) | > 10 µM (inactive)
2 | CCOC(=O)c1nc2ccc(C(F)(F)F)cc2nc1NCc1cc(OC)c(OC)c(OC)c1 | > 100 µM (inactive) | 50.6 µM (inactive) | 7.38 µM (inactive) | 33 µM (inactive) | > 100 µM (inactive) | > 100 µM (inactive) | 27.6 µM (inactive) | > 100 µM (inactive) | 35.6 µM (inactive) | 29.1 µM (inactive) | 59.2 µM (inactive) | > 100 µM (inactive) | 61.8 µM (inactive) | 27.7 µM (inactive) | > 100 µM (inactive) | 60 µM (inactive) | > 100 µM (inactive) | – | 38.6 µM (inactive) | 39.9 µM (inactive)
3 | CC(C)=CCc1[nH]c2ccccc2c1C1=C(O)C(=O)C(c2c(CC=C(C)C)[nH]c3ccccc23)=C(O)C1=O | 1.73 µM (inactive) | 1.56 µM (inactive) | 1.17 µM (inactive) | 2.19 µM (inactive) | 0.419 µM (active) | – | 2.76 µM (inactive) | 1.21 µM (inactive) | 0.608 µM (active) | 0.604 µM (active) | 1.91 µM (inactive) | 2.03 µM (inactive) | 0.409 µM (active) | 1.12 µM (inactive) | 1.53 µM (inactive) | 1.28 µM (inactive) | 2.12 µM (inactive) | 0.989 µM (active) | – | 1.75 µM (inactive)
4 | CCCC(=O)NC1=C(Cl)C(=O)c2ccccc2C1=O | 7.78 µM (inactive) | 1.73 µM (inactive) | 1.83 µM (inactive) | 0.145 µM (active) | 5.43 µM (inactive) | 4.89 µM (inactive) | 2.25 µM (inactive) | 13.3 µM (inactive) | 3.42 µM (inactive) | 5.09 µM (inactive) | 3.03 µM (inactive) | 6.89 µM (inactive) | 6.92 µM (inactive) | 1.82 µM (inactive) | 5.02 µM (inactive) | 3.94 µM (inactive) | 4.29 µM (inactive) | 2.07 µM (inactive) | 2.45 µM (inactive) | 1.15 µM (inactive)
5 | CN1C(=O)[C@@H]2N(CSC2(C)C)C1=S | > 100 µM (inactive) | > 100 µM (inactive) | > 100 µM (inactive) | – | > 100 µM (inactive) | > 100 µM (inactive) | > 100 µM (inactive) | > 100 µM (inactive) | > 100 µM (inactive) | > 100 µM (inactive) | > 100 µM (inactive) | > 100 µM (inactive) | > 100 µM (inactive) | 98.6 µM (inactive) | > 100 µM (inactive) | > 100 µM (inactive) | > 100 µM (inactive) | 69.7 µM (inactive) | > 100 µM (inactive) | > 100 µM (inactive)
6 | Cc1c2ccncc2c(C)c2c1sc1ccccc12 | 8.13 µM (inactive) | 3.85 µM (inactive) | 2.19 µM (inactive) | 2.9 µM (inactive) | 16.7 µM (inactive) | 16.9 µM (inactive) | 13.1 µM (inactive) | 8.47 µM (inactive) | 15 µM (inactive) | 14.6 µM (inactive) | 8.2 µM (inactive) | 9.4 µM (inactive) | 11.3 µM (inactive) | 12 µM (inactive) | 8.22 µM (inactive) | 16.5 µM (inactive) | 19.3 µM (inactive) | 6.5 µM (inactive) | 6.73 µM (inactive) | 10 µM (inactive)
7 | COC(=O)CC1(O)C=CC(=O)C=C1 [JACARANONE] | 8.61 µM (inactive) | 2.99 µM (inactive) | 2.47 µM (inactive) | 2.59 µM (inactive) | 5.02 µM (inactive) | 4.81 µM (inactive) | 5.42 µM (inactive) | 7.16 µM (inactive) | 6.47 µM (inactive) | 5.43 µM (inactive) | 2.96 µM (inactive) | 5.48 µM (inactive) | 3.18 µM (inactive) | 8.07 µM (inactive) | 3.4 µM (inactive) | 2.66 µM (inactive) | 2.65 µM (inactive) | 3.76 µM (inactive) | 3.53 µM (inactive) | 3.36 µM (inactive)
8 | O=[N+]([O-])c1ccc(NC(=S)Nc2ccccn2)cc1 | 22.7 µM (inactive) | 34.1 µM (inactive) | 5.28 µM (inactive) | 14 µM (inactive) | > 92.3 µM (inactive) | 31.3 µM (inactive) | 35.7 µM (inactive) | 12.8 µM (inactive) | 20.8 µM (inactive) | 18 µM (inactive) | 63.4 µM (inactive) | 57.3 µM (inactive) | 26.9 µM (inactive) | 72.4 µM (inactive) | 31.5 µM (inactive) | 40.3 µM (inactive) | 64.4 µM (inactive) | > 69.2 µM (inactive) | 8.63 µM (inactive) | 4.68 µM (inactive)
9 | Nc1cc(-c2ccc(Cl)cc2)nn1-c1nc2ccccc2nc1-c1ccccc1 | > 100 µM (inactive) | 70.6 µM (inactive) | 71.8 µM (inactive) | > 100 µM (inactive) | > 100 µM (inactive) | 77.1 µM (inactive) | 13.3 µM (inactive) | > 100 µM (inactive) | > 100 µM (inactive) | 27.6 µM (inactive) | – | 47.8 µM (inactive) | > 100 µM (inactive) | 56 µM (inactive) | > 100 µM (inactive) | > 100 µM (inactive) | > 100 µM (inactive) | > 100 µM (inactive) | 95.9 µM (inactive) | 35 µM (inactive)
10 | Cn1nnnc1SC(F)(F)c1nc2ccccc2o1 | > 100 µM (inactive) | > 100 µM (inactive) | > 100 µM (inactive) | – | > 100 µM (inactive) | > 100 µM (inactive) | > 100 µM (inactive) | > 100 µM (inactive) | > 100 µM (inactive) | 52.1 µM (inactive) | > 100 µM (inactive) | – | > 100 µM (inactive) | > 100 µM (inactive) | > 100 µM (inactive) | > 100 µM (inactive) | > 100 µM (inactive) | > 100 µM (inactive) | > 100 µM (inactive) | > 100 µM (inactive)
11 | COC(=O)CCC(C)[C@H]1CCC2C3C(C[C@H](OC(C)=O)[C@@]21C)[C@@]1(C)CCC2(C[C@H]1C[C@H]3OC(C)=O)OOC1(CCCCCCC1)OO2 (some centres undefined) | 6.79 µM (inactive) | 4.09 µM (inactive) | 2.29 µM (inactive) | 4.3 µM (inactive) | 9.14 µM (inactive) | 6.53 µM (inactive) | 2.02 µM (inactive) | > 100 µM (inactive) | 18.4 µM (inactive) | 6.35 µM (inactive) | 6.55 µM (inactive) | > 100 µM (inactive) | 6.27 µM (inactive) | 7.55 µM (inactive) | 4.82 µM (inactive) | 8.26 µM (inactive) | 5.35 µM (inactive) | 4.67 µM (inactive) | 18.6 µM (inactive) | > 100 µM (inactive)
12 | CCCCCCCC/C=C(\Br)C(O)C(Br)Br (centres undefined) | – | 22.3 µM (inactive) | 40.8 µM (inactive) | – | 22.4 µM (inactive) | 39.4 µM (inactive) | 31 µM (inactive) | 31 µM (inactive) | 21.5 µM (inactive) | 36 µM (inactive) | 22.1 µM (inactive) | 31.8 µM (inactive) | 23.2 µM (inactive) | 20.9 µM (inactive) | 23.4 µM (inactive) | 36.8 µM (inactive) | 28 µM (inactive) | 69.7 µM (inactive) | – | 19.3 µM (inactive)
13 | O=C(/C=C/c1ccc(OCc2ccccc2)cc1)NCc1ccc(C(=O)NCCc2c[nH]c3ccccc23)cc1 | > 34.6 µM (inactive) | 36.5 µM (inactive) | 20.9 µM (inactive) | 6.22 µM (inactive) | 66.1 µM (inactive) | 9.35 µM (inactive) | 30.4 µM (inactive) | 38.9 µM (inactive) | > 57.3 µM (inactive) | 8.3 µM (inactive) | 14.9 µM (inactive) | 9.77 µM (inactive) | 11.1 µM (inactive) | 21 µM (inactive) | 6.76 µM (inactive) | 13.8 µM (inactive) | 33 µM (inactive) | 44.4 µM (inactive) | 2.67 µM (inactive) | 7.06 µM (inactive)
14 | NNC(=S)N/N=C(/C(=O)Nc1ccc(Cl)c(Cl)c1)C(C1OC(=O)c2ccccc21)[N+](=O)[O-] (centres undefined) | > 100 µM (inactive) | > 100 µM (inactive) | > 10 µM (inactive) | 19.9 µM (inactive) | > 100 µM (inactive) | > 100 µM (inactive) | > 100 µM (inactive) | > 100 µM (inactive) | > 100 µM (inactive) | > 100 µM (inactive) | > 100 µM (inactive) | – | > 100 µM (inactive) | 86.9 µM (inactive) | > 100 µM (inactive) | > 100 µM (inactive) | > 100 µM (inactive) | > 100 µM (inactive) | > 100 µM (inactive) | > 100 µM (inactive)
